Data reported in publication PMC6923382, “Small molecules that inhibit TNF signalling by stabilising an asymmetric form of the trimer” (Nature Communications, 2019).
“And” between values parts separate entries of the source, which are not always exact repeats. Equal entries are not always repeated. “Also recorded” adds a separate entry of the source.

How the values were obtained:
TNF (L57F) = target: T1, TNF (L57F) (Homo sapiens, UniProt P01375, L133F); assay: HEK reporter gene assay, L57F TNF; format: cell-based; settings: 10 pM L57F TNF; HEK NFκΒ reporter
T1 construct: Human TNF (CID2043, UniProt P01375 residues 77–233); 6XHis-Smt3 (N, cleaved yes); host or cells: E. coli
T1 sequence (P01375 77-233 L133F): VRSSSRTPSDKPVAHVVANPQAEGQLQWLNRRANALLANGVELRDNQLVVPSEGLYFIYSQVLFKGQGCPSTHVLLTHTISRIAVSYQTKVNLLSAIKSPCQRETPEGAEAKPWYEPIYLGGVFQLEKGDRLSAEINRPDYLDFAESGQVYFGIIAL
Method: Stimulation of HEK-293 cells by TNF leads to activation of the NF-κB pathway. The HEK-Blue^TM CD40L SEAP (secreted embryonic alkaline phosphatase) reporter cell line used to determine TNF activity (InvivoGen, #hkb-CD40, cells were described as mycoplasma free when purchased and were tested using Mycoalert [Lonza] after each batch of assay vial preparation). Compounds were titrated in DMSO and pre-incubated with TNF at a concentration giving half maximal response (10 pM for human or 20 pM for mouse) or the anti-human TNFR1 agonist antibody (R&D Systems. #AF 225) for 1 h. Cells were added to the compound/stimulus mixture and further incubated for 18 h. SEAP was measured using the colorimetric substrate HEK-Blue Detect^TM or QUANTI-Blue^TM from InvivoGen. Percentage inhibitions for compound dilutions were calculated between a DMSO control and maximum inhibition (by excess anti-TNF biologic, or NF-κB inhibitor–TPCA-1 [Tocris #2559, R&D Systems]). The IC50 was determined as the point of inflexion between the fitted minimum and maximum of the compound dose response curve, calculated using 4PL fitted curve. Mean IC50s are reported as a mean of at least two experiments. Dose response curves for TNF and the anti-human TNFR1 agonist antibody are shown in Supplementary Fig. 9. […]
In this assay reduction is luminescence is due to cell killing by TNF and inhibition causes increased luminescence. […]

[1] = Dynamic light scattering (colloidal aggregation); format: physicochemical; settings: 10 μM; no detergent; 25°C; n=5
Method: Dynamic light scattering (DLS) experiments have been performed with compounds […]
baseline control and positive control (miconazole at 100 μM) were included. The radius data […]
compound in the absence of detergent.
DLS data (Malvern Nano ZS). Each sample (150 μl) was measured 5 times in a low volume disposable sizing cuvette at 25°C using 173º non-invasive backscatter (NIBS). […]

mouse TNF = target: T2, mouse TNF (Mus musculus, UniProt P06804); assay: Mouse TNF induced neutrophil recruitment in vivo; settings: for CD45+ GR-1+ cells/mL in the peritoneal cavity: mouse TNF, individual mice
T2 construct: stabilise an asymmetrical form of the soluble TNF trimer
T2 sequence (P06804 80-235 limits assumed): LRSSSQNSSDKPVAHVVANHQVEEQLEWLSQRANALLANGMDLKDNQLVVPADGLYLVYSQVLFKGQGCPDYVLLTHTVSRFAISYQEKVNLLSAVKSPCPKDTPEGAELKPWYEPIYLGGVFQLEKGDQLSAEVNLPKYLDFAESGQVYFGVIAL
Method: (§1) All in vivo studies were reviewed by an internal Ethical Review Body (ERB) and conducted in accordance with the Animals (Scientific Procedures) Act 1986, EU Directive 2010/63/EU. […] Anti-TNFα biologics, CDP571[21] (10 mg/kg) and etanercept (30 mg/kg), diluted in PBS, were dosed intravenously prior to human and mouse TNF challenge. Two hours after the TNF challenge, mice were sacrificed and the peritoneal cavity lavaged with 3 mL of FACS buffer. An aliquot (0.3 mL) of lavage fluid was used to assess the number CD45^+GR1^+ cells by flow cytometry. Briefly, the cells were treated with ACK lysis buffer, washed and suspended in FACS buffer prior to staining with FITC anti-mouse CD45 and PE anti-mouse GR1. Data are shown as mean ± standard error of the number of CD45^+GR-1^+ cells. Statistical significance (*p < 0.05, **p < 0.01, ****p < 0.0001) was determined using one-way ANOVA with Dunnett’s multiple comparison test.

TNF = TNF (Homo sapiens, UniProt P01375); assay: Human TNF induced neutrophil recruitment in vivo; parameters: stabilise an asymmetrical form of the soluble TNF trimer; settings: for CD45+ GR-1+ cells/mL in the peritoneal cavity: human TNF, individual mice
Chain of TNF (P01375 77-233 limits assumed): as the sequence (P01375 77-233 L133F) above, with F57L counted along it
Method: as §1

[2] = test system: NF-κB stimulated by the TNFR1 agonist antibody; assay: HEK-293 reporter gene assay, anti-TNFR1 agonist antibody stimulus; format: cell-based, human; settings: agonist antibody 0.3 μg/mL; compound up to 10 µM
Method: Stimulation of HEK-293 cells by TNF leads to activation of the NF-κB pathway. The HEK-Blue^TM CD40L SEAP (secreted embryonic alkaline phosphatase) reporter cell line used to determine TNF activity (InvivoGen, #hkb-CD40, cells were described as mycoplasma free when purchased and were tested using Mycoalert [Lonza] after each batch of assay vial preparation). Compounds were titrated in DMSO and pre-incubated with TNF at a concentration giving half maximal response (10 pM for human or 20 pM for mouse) or the anti-human TNFR1 agonist antibody (R&D Systems. #AF 225) for 1 h. Cells were added to the compound/stimulus mixture and further incubated for 18 h. SEAP was measured using the colorimetric substrate HEK-Blue Detect^TM or QUANTI-Blue^TM from InvivoGen. Percentage inhibitions for compound dilutions were calculated between a DMSO control and maximum inhibition (by excess anti-TNF biologic, or NF-κB inhibitor–TPCA-1 [Tocris #2559, R&D Systems]). The IC50 was determined as the point of inflexion between the fitted minimum and maximum of the compound dose response curve, calculated using 4PL fitted curve. Mean IC50s are reported as a mean of at least two experiments. Dose response curves for TNF and the anti-human TNFR1 agonist antibody are shown in Supplementary Fig. 9.

[3] = test system: TNFR1 signalling complex (RIP-1, pNF-κB); assay: TNFR1 immunoprecipitation and signalling assay (Jurkat cells); format: cell-based, human; settings: 10 µM compound pre-incubated 1 h with TNF 25 ng/mL, Western blot
Method: Cells were then lysed for 1 h in cold lysis buffer (1% NP-40, 150 mM NaCl, 50 mM Tris pH 8.0, 25 mM NaF, 1 mM vanadate, 1% phosphatase inhibitor and 0.2% protease inhibitor cocktail), and cell supernatant harvested. TNFR1 immunoprecipitation was performed by incubating supernatant with 5 µg anti-TNFR1 antibody (R&D systems, #AB-225-PB) overnight while rotating at 4 °C, followed by the addition of 20 µL protein G sepharose beads for 1 h rotating at 4 °C. An isotype control sample was incubated with 5 µg goat IgG, instead of anti-TNFR1 antibody to assess how much unspecific binding to the beads occurs during immunoprecipitation. Beads were subsequently washed 3× in lysis buffer, and then the supernatant removed and SDS-PAGE reducing sample buffer added to beads and samples boiled for 10 min. Sample (15 µL) was then loaded on a 4–12% Bis-Tris gel and run for 65 min at 200 V in MOPS buffer. […] RIP-1 ubiquitination (1:250 dilution, BD, #610459) was then detected by Western blotting using anti-mouse-HRP (1:2000 dilution, Cell Signalling Technology, #7076). pNFκB (1:1000 dilution, Cell Signalling Technology, #3033) and GAPDH (1:4000 dilution, Cell Signalling Technology, #5174) were measured in the total cell lysates by Western blotting using anti-rabbit HRP (1:2000 dilution, Cell Signalling Technology, #7074). […]

Cc1ccc(C)c(Cn2c(C(O)c3ccncc3)nc3ccc(-c4cnn(C)c4)cc32)c1 (centres unmarked) [UCB-9260]
inhibition of L57F TNF (TNF (L57F)): did not inhibit; also recorded: no activity | colloidal aggregation (DLS radius) [1]: no evidence of colloidal aggregation | CD45+ GR-1+ cells/mL in the peritoneal cavity (mouse TNF; 10mg/kg): 36683.8 cells/mL and 23446.5 cells/mL and 65459.0 cells/mL and 42287.7 cells/mL and 32860.3 cells/mL and 46170.3 cells/mL and 36366.5 cells/mL | CD45+ GR-1+ cells/mL in the peritoneal cavity (mouse TNF; 30mg/kg): 68892.4 cells/mL and 37218.6 cells/mL and 45217.2 cells/mL and 30219.5 cells/mL and 27497.1 cells/mL and 16597.5 cells/mL | CD45+ GR-1+ cells/mL in the peritoneal cavity (mouse TNF; 100mg/kg): 11514.8 cells/mL and 33134.0 cells/mL and 13657.2 cells/mL and 18518.9 cells/mL and 17977.4 cells/mL and 18837.9 cells/mL and 21785.8 cells/mL and 22316.6 cells/mL | CD45+ GR-1+ cells/mL in the peritoneal cavity (mouse TNF; 300mg/kg): 6821.7 cells/mL and 12941.2 cells/mL and 5881.9 cells/mL and 6788.4 cells/mL and 5482.5 cells/mL and 47242.4 cells/mL and 15367.3 cells/mL and 2338.2 cells/mL | dose with significant inhibition of neutrophil recruitment (mouse TNF; oral, murine TNF i.p., CD45+GR1+ cells): 10 mg/kg | CD45+ GR-1+ cells/mL in the peritoneal cavity (TNF; 10mg/kg): 80382.4 cells/mL and 68398.8 cells/mL and 97517.0 cells/mL and 65083.3 cells/mL and 43379.0 cells/mL and 51529.8 cells/mL | CD45+ GR-1+ cells/mL in the peritoneal cavity (TNF; 30mg/kg): 12661.4 cells/mL and 54428.1 cells/mL and 25233.7 cells/mL and 91899.5 cells/mL and 50362.8 cells/mL and 37741.7 cells/mL | CD45+ GR-1+ cells/mL in the peritoneal cavity (TNF; 100mg/kg): 14437.1 cells/mL and 19826.5 cells/mL and 38381.4 cells/mL and 4238.2 cells/mL and 19466.7 cells/mL and 51556.6 cells/mL and 16326.3 cells/mL and 11513.0 cells/mL | CD45+ GR-1+ cells/mL in the peritoneal cavity (TNF; 300mg/kg): 3894.3 cells/mL and 4438.0 cells/mL and 8909.7 cells/mL and 7748.4 cells/mL and 19700.6 cells/mL and 11113.9 cells/mL | dose with significant inhibition of neutrophil recruitment (TNF; oral, human TNF i.p., CD45+GR1+ cells): 30 mg/kg | inhibition of NF-κB stimulated by TNFR1 agonist antibody [2]: no inhibition | RIP recruitment to TNFR signalling complex and phosphorylation of NF-κB [3]: markedly reduced
